The term AC50 denotes the midpoint of the concentration-response curve, whichever way the signal moves. In general, EC50 refers to the concentration at which the effect is half-maximal. By IC50 is commonly meant the concentration needed to halve the response being measured. Usually CC50 stands for the concentration at which the toxic effect on the cells reaches its halfway point. Usually GI50 stands for the concentration that inhibits growth by half.

The structures appear in SMILES notation. Activity calls are given as the source filed them. Where only a bound is given, the exact number is not on record here.

Data set [1] has as its system HEK293. As to the kind of experiment: inhibitors of LMP1-driven NF-kB reporter, dose response, cell-based, HEK293, luciferase, cherry-pick (AID 588343). It counts as functional. The settings on record: Homo sapiens.
For data set [2], the target named is Cytochrome P450 3A4 (Homo sapiens, UniProt P08684).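 Note: CYP3A4 tested as one member of a cytochrome P450 panel screen.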
Cytochrome P450 3A4, sequence (P08684 whole entry): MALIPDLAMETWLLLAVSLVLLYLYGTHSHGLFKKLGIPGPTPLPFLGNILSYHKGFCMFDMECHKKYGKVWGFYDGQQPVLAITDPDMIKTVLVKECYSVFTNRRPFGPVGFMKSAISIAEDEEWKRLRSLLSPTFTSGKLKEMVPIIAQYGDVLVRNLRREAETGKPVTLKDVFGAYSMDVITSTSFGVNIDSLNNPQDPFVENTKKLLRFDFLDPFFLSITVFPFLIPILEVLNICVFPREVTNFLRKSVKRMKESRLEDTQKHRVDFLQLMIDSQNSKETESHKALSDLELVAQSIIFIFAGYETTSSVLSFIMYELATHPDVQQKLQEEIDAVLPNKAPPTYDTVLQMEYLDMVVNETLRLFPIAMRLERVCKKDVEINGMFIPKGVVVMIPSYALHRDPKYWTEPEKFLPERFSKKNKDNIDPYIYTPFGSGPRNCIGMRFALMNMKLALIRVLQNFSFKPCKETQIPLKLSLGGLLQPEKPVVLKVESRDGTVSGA
In data set [3] the target is Cytochrome P450 2D6 (Homo sapiens, UniProt P10635).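 Note: CYP2D6 member of a cytochrome P450 panel assay.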
Cytochrome P450 2D6, sequence (P10635 whole entry): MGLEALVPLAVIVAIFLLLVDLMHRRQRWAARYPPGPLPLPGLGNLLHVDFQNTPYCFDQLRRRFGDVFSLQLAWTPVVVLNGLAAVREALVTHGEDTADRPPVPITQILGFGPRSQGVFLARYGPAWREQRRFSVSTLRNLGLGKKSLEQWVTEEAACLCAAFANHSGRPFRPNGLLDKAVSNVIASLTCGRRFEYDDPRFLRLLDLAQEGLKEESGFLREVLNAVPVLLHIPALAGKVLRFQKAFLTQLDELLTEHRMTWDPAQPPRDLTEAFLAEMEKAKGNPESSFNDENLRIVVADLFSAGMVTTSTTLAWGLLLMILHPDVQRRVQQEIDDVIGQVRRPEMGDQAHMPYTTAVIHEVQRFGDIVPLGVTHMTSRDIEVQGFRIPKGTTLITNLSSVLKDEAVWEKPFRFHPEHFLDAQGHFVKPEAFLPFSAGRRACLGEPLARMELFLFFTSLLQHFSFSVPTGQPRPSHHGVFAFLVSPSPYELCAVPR
In data set [4] the target is T1, Replicative DNA helicase DnaB (Mycobacterium tuberculosis, UniProt P9WMR3).
T1 sequence (P9WMR3 whole entry): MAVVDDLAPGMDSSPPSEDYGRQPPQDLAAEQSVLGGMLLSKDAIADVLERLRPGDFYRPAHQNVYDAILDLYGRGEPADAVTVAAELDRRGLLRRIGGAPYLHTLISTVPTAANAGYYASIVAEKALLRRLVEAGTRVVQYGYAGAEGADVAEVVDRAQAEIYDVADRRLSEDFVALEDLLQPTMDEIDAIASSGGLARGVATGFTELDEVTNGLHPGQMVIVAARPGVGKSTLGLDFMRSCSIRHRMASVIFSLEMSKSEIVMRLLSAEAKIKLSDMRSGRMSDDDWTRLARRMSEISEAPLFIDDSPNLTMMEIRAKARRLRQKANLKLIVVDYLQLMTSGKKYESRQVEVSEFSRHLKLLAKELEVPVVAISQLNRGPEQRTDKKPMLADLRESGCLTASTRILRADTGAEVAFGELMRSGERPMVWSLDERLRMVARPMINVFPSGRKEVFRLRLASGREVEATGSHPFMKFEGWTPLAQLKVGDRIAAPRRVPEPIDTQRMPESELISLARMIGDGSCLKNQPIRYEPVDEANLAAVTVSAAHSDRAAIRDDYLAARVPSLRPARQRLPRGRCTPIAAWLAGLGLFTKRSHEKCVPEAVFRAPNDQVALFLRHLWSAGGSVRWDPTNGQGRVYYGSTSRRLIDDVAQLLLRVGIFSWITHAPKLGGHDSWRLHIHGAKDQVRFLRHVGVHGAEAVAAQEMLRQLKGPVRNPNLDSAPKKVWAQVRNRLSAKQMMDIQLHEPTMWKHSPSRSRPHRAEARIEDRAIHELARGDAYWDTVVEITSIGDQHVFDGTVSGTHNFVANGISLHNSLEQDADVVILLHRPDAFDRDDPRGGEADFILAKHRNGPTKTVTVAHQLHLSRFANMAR
As to the kind of experiment: DnaB intein splicing inhibitors, dose response, biochemical, cell-free fluorescence (AID 449749). The format is functional.

The target in data set [5] is T2, Protein RecA (Mycobacterium tuberculosis, UniProt P9WHJ3).
T2 sequence (P9WHJ3 whole entry): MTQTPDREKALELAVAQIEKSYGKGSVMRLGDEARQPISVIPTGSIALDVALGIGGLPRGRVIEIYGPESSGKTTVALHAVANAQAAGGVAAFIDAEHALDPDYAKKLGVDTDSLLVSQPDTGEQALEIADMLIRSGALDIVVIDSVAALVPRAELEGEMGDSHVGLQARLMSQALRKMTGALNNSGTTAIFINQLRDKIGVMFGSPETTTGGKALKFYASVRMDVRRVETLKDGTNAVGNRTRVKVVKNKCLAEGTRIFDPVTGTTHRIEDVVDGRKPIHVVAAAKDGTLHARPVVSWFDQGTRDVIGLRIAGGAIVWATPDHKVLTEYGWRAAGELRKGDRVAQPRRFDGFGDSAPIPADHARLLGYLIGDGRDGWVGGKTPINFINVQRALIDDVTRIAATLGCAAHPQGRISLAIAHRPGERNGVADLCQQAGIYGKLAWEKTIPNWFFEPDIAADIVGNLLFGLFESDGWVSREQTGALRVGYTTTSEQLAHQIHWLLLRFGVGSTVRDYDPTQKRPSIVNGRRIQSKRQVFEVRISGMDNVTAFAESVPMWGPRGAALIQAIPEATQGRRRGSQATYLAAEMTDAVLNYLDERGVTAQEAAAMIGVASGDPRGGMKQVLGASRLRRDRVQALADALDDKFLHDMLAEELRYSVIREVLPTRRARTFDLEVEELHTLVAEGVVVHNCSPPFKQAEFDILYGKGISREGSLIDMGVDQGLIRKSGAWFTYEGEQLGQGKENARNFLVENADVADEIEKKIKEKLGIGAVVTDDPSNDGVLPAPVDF
As to the kind of experiment: Fluorescence Cell-Free Homogeneous Dose Retest to Identify Inhibitors of RecA-Intein Splicing Activity. [Related pubchem assays (depositor defined):AID2097, AID2223, AID489010, AID492950]. It counts as functional.

The target of data set [6] is Genome polyprotein (dengue virus type 2, UniProt P29990). As to the kind of experiment: Dengue-2 NS5 methyltransferase inhibitors, primary screen, biochemical, confirmation dose response (AID 588689). It counts as functional.
Genome polyprotein, sequence (P29990 2492-3391 limits assumed): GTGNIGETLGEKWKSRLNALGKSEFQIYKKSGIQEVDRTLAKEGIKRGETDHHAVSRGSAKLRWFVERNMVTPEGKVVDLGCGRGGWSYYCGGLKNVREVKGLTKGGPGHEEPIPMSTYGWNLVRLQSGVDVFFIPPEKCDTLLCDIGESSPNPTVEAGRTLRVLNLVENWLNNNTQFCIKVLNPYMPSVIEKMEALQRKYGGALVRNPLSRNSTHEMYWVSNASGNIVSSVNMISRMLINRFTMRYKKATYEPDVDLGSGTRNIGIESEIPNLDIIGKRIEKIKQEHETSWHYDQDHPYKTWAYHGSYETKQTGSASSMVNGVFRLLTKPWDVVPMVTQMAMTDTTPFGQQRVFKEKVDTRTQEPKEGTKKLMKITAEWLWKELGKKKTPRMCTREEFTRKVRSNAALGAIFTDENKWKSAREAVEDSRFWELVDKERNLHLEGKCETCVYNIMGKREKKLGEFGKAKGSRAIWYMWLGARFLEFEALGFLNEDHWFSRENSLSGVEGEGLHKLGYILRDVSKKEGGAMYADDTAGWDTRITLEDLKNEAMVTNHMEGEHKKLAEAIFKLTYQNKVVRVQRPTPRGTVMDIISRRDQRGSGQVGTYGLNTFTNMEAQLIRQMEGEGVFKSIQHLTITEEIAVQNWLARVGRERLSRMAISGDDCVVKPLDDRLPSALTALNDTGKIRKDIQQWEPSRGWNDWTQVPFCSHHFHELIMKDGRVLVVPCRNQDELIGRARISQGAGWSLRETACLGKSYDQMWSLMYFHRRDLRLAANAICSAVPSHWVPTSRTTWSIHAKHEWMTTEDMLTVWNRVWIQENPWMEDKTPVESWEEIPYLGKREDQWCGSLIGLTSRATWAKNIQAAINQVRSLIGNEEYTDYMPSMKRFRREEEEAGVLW
Data set [7] relates to Vero. Put plainly: Vero cell cytotoxicity, cytotoxicity control for flavivirus capping enzyme inhibitors (AID 588742). The format is functional. Conditions: Chlorocebus sabaeus.
Data set [8] deals with Voltage-gated inwardly rectifying potassium channel KCNH2 (Homo sapiens, UniProt Q12809). Conditions: Potency.
Voltage-gated inwardly rectifying potassium channel KCNH2, sequence (Q12809 whole entry): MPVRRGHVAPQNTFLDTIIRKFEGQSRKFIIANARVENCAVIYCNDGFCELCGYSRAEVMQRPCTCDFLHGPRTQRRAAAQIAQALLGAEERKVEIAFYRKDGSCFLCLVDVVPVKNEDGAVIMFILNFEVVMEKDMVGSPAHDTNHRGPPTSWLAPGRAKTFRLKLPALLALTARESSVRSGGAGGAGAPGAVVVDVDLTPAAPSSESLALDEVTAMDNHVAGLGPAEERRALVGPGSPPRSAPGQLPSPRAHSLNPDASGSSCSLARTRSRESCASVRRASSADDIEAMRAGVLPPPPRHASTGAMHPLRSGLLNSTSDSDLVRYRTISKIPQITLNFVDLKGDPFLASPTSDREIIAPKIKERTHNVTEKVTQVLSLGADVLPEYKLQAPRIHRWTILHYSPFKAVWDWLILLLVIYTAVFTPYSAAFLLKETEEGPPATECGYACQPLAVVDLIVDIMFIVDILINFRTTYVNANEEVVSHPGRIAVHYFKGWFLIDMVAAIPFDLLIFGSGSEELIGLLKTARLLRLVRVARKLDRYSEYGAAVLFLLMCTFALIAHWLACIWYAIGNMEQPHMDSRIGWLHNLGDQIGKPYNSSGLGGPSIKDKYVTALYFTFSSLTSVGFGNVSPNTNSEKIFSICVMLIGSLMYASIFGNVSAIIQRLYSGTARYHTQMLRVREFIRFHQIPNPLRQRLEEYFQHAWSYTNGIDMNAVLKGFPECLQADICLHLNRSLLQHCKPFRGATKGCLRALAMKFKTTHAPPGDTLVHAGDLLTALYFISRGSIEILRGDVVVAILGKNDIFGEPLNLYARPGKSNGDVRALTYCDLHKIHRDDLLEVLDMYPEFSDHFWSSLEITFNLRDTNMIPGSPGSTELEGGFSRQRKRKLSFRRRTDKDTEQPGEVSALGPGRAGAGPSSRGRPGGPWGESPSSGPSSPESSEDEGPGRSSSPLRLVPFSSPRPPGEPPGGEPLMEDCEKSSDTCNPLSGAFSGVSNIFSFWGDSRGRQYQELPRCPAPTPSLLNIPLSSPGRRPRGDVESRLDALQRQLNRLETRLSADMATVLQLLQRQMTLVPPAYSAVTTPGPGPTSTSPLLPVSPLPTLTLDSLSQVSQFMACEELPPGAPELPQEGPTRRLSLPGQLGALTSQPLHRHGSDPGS
The target of data set [9] is Cytochrome P450 2C9 (Homo sapiens, UniProt P11712).
Cytochrome P450 2C9, sequence (P11712 whole entry): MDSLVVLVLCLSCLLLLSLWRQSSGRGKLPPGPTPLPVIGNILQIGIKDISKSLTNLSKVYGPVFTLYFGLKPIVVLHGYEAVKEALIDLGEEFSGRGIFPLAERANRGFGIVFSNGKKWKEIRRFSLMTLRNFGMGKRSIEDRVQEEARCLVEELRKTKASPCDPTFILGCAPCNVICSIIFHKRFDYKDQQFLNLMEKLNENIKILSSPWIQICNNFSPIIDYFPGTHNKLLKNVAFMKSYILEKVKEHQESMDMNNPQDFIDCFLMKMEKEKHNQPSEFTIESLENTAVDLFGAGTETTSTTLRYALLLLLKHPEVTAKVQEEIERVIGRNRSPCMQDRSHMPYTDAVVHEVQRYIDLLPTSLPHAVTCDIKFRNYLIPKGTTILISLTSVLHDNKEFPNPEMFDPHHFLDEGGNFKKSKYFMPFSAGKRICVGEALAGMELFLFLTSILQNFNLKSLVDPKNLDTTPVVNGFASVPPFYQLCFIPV
Data set [10] concerns the target T3, Cytochrome P450 1A2 (Homo sapiens, UniProt P05177).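 Note: PubChem cytochrome P450 panel assay, CYP1A2 panel member.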
T3 sequence (P05177 whole entry): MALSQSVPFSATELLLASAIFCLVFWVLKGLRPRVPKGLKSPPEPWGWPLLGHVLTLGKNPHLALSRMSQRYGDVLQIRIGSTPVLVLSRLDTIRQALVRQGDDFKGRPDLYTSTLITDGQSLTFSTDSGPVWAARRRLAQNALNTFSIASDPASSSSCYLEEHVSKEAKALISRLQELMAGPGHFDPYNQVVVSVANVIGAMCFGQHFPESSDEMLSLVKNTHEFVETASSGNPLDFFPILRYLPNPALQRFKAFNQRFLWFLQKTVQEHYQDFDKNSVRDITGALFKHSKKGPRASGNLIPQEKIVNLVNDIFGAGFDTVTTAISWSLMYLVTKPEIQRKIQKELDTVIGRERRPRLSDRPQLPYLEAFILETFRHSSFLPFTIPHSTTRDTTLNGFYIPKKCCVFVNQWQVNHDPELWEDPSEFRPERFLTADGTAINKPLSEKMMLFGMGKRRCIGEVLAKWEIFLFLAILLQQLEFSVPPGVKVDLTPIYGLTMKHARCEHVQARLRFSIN

Data set [11] can be described thus: HepG2 cell cytotoxicity, dose response, cytotoxicity control for Shn3 inhibitor project, CellTiter-Glo, cherry-picked (AID 624134). The format is functional, cell-based. On the technique in general: Cellular ATP, detected with luciferase, serves as a proxy for viable cell number.
The nature of data set [12]: Shn3 3'UTR reporter inhibitors, dose response, cell-based, Clone20 osteoblasts, firefly luciferase, cherry-picked (AID 624132).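 Note: firefly luciferase luminescence from reporter carrying the Shn3 3'UTR in osteoblasts.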 It counts as functional.
Data set [13] deals with Heat shock protein HSP 90-alpha (Homo sapiens, UniProt P07900). It counts as functional, organism-based.
Data set [14] in a line: control 3'UTR Renilla luciferase suppression, dose response, counter-screen for Shn3 inhibitor project, cell-based, Clone20-Shn3RL, cherry-picked (AID 624133). The format is functional.
Data set [15] in a line: Luminescence Cell-Based Dose Retest to Confirm Inhibitors of Cancer Stem Cells. [Related pubchem assays (depositor defined):AID2717, AID2721]. It counts as functional. The settings on record: Homo sapiens.
A short description of data set [16]: HEp-2 cell cytotoxicity, dose response, cytotoxicity control for RSV inhibitor project, HTS (AID 2410). It counts as functional. Conditions: human respiratory syncytial virus.
For data set [17], the system named is SN12K1. Put plainly: cells. Conditions: Homo sapiens. It counts as functional.
Data set [18] has as its system P388/ADR. As to the kind of experiment: cells. The settings on record: Mus musculus. It counts as functional.
Data set [19] relates to P388. As to the kind of experiment: cells. The format is functional. The settings on record: Mus musculus.
The target in data set [20] is Cytochrome P450 2C19 (Homo sapiens, UniProt P33261). Put plainly: Cytochrome panel assay with activity outcomes. Panel member name: p450-cyp2c19 Compounds with AC50 equal or less than 10 uM are considered active. It counts as functional. The settings on record: read-out: AC50.
Cytochrome P450 2C19, sequence (P33261 whole entry): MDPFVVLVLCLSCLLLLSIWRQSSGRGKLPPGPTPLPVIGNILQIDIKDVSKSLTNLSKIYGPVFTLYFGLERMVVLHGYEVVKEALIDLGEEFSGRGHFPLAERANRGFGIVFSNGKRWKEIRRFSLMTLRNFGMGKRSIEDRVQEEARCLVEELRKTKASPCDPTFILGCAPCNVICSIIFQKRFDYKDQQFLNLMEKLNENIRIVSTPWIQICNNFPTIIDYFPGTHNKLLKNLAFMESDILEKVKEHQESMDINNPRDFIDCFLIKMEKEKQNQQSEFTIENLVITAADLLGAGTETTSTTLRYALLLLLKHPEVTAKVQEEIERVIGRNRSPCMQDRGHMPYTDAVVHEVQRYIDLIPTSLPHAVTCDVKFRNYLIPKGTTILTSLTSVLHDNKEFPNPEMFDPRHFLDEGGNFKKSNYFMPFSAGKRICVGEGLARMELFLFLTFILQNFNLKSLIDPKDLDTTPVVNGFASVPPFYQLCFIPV

For the compound `COCCN1CSC(=S)N(Cc2ccco2)C1`, the AC50 in data set [1] is 0.688 µM (active).
As to `Cc1noc(C)c1C(=O)N1CCC2(CCN(C(=O)Nc3ccccc3)CC2)CC1`, the AC50 entry is “inconclusive” in data set [2] and 12.6 µM (inconclusive) in data set [3].
For the compound `COC(=O)c1c(NC(=O)/C=C/C(=O)O)sc(C)c1-c1ccc(C(C)C)cc1`, the AC50 in data set [4] is 6.48 µM (active). For the same compound, the EC50 in data set [5] is 2.4 µM (active). The IC50 in data set [6] is 65 µM (active). For the same compound, the CC50 in data set [7] is > 40 µM (active).
Consider `CCCCOC(=O)COc1ccc(Cl)cc1Cl`, for which the AC50 in data set [8] is 50.1 µM (inconclusive).
Same read-out and setting: for `O=[N+]([O-])c1ccc(CSc2ncnc3c2ncn3[C@@H]2O[C@H](CO)[C@H](O)[C@H]2O)cc1` the value was 35.5 µM (inconclusive).
On to `CCCn1nnc(NC(=O)Cc2ccccc2)n1`, for which the AC50 in data set [9] was 0.00562 µM (inconclusive); in [2], “inconclusive”; in data set [10], 28.2 µM (inconclusive).
For the compound `COc1ccc(NC(=O)c2sc3ncnc(N4CCN(c5ccccn5)CC4)c3c2C)cc1Cl`, the AC50 in [11] was > 70 µM (inactive); in data set [12] it was 4.08 µM (active); in data set [13], 6.41 µM (active); in data set [1] it was 11.6 µM (active); in [14] it was 3.19 µM (active).
On to `N#Cc1cccc(NC(=O)N2CC3(CCN(C(=O)c4cnccn4)CC3)C2)c1`, for which the AC50 entry in data set [2] is “inconclusive”; in data set [10], 39.8 µM (inconclusive).
Regarding `Cc1cccc(Nc2nc(-c3ccc(O)cc3O)cs2)n1`, in [15], the AC50 was 6.88 µM (active). Moreover, the CC50 was 43.6 µM (active) in data set [16] and > 40 µM (active) in data set [7].
In the case of `CCCCOC1(c2ccccc2)OC(=O)c2ccccc21` (centres undefined), the values for the AC50 in [9] and in data set [2] were 17.8 µM (inconclusive) and “inconclusive”, respectively.
With `O=C1CCCN1CCC/N=c1/cc2n(-c3ccc(Cl)cc3)c3ccccc3nc-2cc1Nc1ccc(Cl)cc1`, the values for the GI50 in [17], in data set [18] and in data set [19] were 9.66 µM (inactive), 3.53 µM (inactive) and 3450 nM (inactive), respectively.
The like results for `C=C1C(=O)O[C@@H]2[C@H](O)[C@@H](C)[C@@H]3C=CC(=O)[C@@]3(C)[C@@H](OC(=O)/C(C)=C/C)[C@H]12` were, in that order, 0.34 µM (active), 0.104 µM (active) and 93.3 nM (active).
The like results for `CC(C)(C)c1ccc2c(c1)OP1(Oc3c(Cl)cc(Cl)c4cccnc34)(O2)Oc2ccc(C(C)(C)C)cc2O1` were, in that order, 6.21 µM (inactive), 2.84 µM (inactive) and 889 nM (active).
The like results for `COc1cc2c(cc1O)N=C[C@@H]1CC[C@@H](O)N1C2=O.COc1cc2c(cc1O)N=C[C@@H]1CC[C@H](O)N1C2=O` were, in that order, 0.53 µM (active), 0.173 µM (active) and 582 nM (active).
As for `CS(=O)(=O)CS(=O)(=O)OCCCl`, the GI50 in [17] is 152 µM (inactive); in [18] it was 27.7 µM (inactive); in [19] it was 17900 nM (inactive).
For the compound `Sc1nnc(-c2ccco2)n1/N=C/C=C/c1ccco1`, the CC50 in [7] is > 40 µM (active).
As to `CCC/N=C/c1c(CCC)nn(-c2nc3ccccc3s2)c1O`, the figures for the AC50 in data set [20], in data set [2] and in data set [3] were 20 µM (inconclusive), “inconclusive” and 25.1 µM (inconclusive), respectively.
Regarding `C[n+]1ccc(Nc2ccc(NC(=O)c3ccc(Nc4cc[n+](C)c5ccc([N+](=O)[O-])cc45)cc3[N+](=O)[O-])cc2)cc1`, the GI50 in data set [17] was 23.9 µM (inactive); in data set [19], 771 nM (active).
Take `Cc1c(C(=O)O)c(O)cc2c1C(=O)c1c(O)c([C@H]3O[C@H](CO)[C@@H](O)[C@H](O)[C@H]3O)c(O)c(O)c1C2=O` [CARMINE]: the AC50 in [8] is 79.4 µM (inconclusive).
Regarding `ClC1=C(Cl)C2(Cl)C3C(Cl)C=CC3C1(Cl)C2(Cl)Cl` (centres undefined) [HEPTACHLOR], the AC50 in data set [8] is 31.6 µM (inconclusive); in data set [15] it was 6.1 µM (active).
Turning to `CC[C@H](NC(=O)c1c(C)c(-c2ccccc2)nc2ccccc12)c1ccccc1` [SB-222200], in [8], the AC50 was 35.5 µM (inconclusive).

For the origin of these results see ChEMBL document CHEMBL1201862, “PubChem BioAssay data set” (2004).
